According to patent publication US20080009418A1, “Selective Inhibitors” (Alchemia LTD., priority 2004, published 2008):

What was measured:
[1] = molecular target: T1, Human δ-opioid (DOP) (Homo sapiens, UniProt P41143); test: Radioligand binding, human δ-opioid (DOP) membranes, FlashPlate, [3H]-Bremazocine; conditions: compound at 10 μM; [3H]-Bremazocine
T1 construct: purchased Perkin Elmer Biosignal
How it was run: (§1)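 Cloned human receptor membranes were coated onto FlashPlate wells and incubated with radioligand and compound (added from a 0.5 mM DMSO daughter plate) for 1 hour at room temperature in the dark. Scintillation counting gave percent inhibition, with DMSO defining total and reference ligand defining non-specific binding.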

[2] = molecular target: T2, Human κ-Opioid (KOP) (Homo sapiens, UniProt P41145); test: Radioligand binding, human κ-opioid (KOP) membranes, filtration, [3H]-Diprenorphine; conditions: compound at 10 μM, [3H]-Diprenorphine
T2 construct: purchased Perkin Elmer Biosignal
How it was run: (§2)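 Membranes from cloned human receptors were incubated with compound and radioligand for 1 hour at room temperature. Bound ligand was collected on 0.3% PEI-soaked filters, washed with cold 50 mM Tris-HCl pH 7.4, and counted by scintillation. Percent inhibition was computed against DMSO totals and reference-ligand nonspecific wells.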

[3] = molecular target: T3, Human Melanocortin (MC3) (Homo sapiens, UniProt P41968); test: Radioligand binding, human melanocortin MC3 membranes, FlashPlate, [125I]-NDP-αMSH; conditions: compound at 10 μM; [125I]-NDP-αMSH
T3 construct: purchased Perkin Elmer Biosignal
How it was run: as §1

[4] = molecular target: T4, Human Melanocortin (MC4) (Homo sapiens, UniProt P32245); test: Radioligand binding, human melanocortin MC4 membranes, FlashPlate, [125I]-NDP-αMSH; conditions: compound at 10 μM; [125I]-NDP-αMSH
T4 construct: purchased Perkin Elmer Biosignal
How it was run: as §1

[5] = molecular target: T5, Human melanocortin (MC5) (Homo sapiens, UniProt P33032); test: Radioligand binding, human melanocortin MC5 membranes, FlashPlate, [125I]-NDP-αMSH; conditions: compound at 10 μM; [125I]-NDP-αMSH
T5 construct: purchased Perkin Elmer Biosignal
How it was run: as §1

[6] = molecular target: T6, Human melanin-concentrating hormone (MCH1) (Homo sapiens, UniProt Q99705); test: Radioligand binding, human melanin-concentrating hormone MCH1 membranes, FlashPlate, [125I]-S36057; conditions: compound at 10 μM; [125I]-S36057
T6 construct: purchased Perkin Elmer Biosignal
How it was run: as §1

[7] = molecular target: T7, Human μ-opioid (MOP) (Homo sapiens, UniProt P35372); test: Radioligand binding, human μ-opioid (MOP) membranes, FlashPlate, [3H]-Naloxone; conditions: compound at 10 μM; [3H]-Naloxone
T7 construct: purchased Perkin Elmer Biosignal
How it was run: as §1

[8] = molecular target: T8, Human neurokinin (NK1) (Homo sapiens, UniProt P25103); test: Radioligand binding, human neurokinin NK1 membranes, filtration, [125I]-Substance P; conditions: compound at 10 μM; [125I]-Substance P
T8 construct: purchased Perkin Elmer Biosignal
How it was run: as §2

[9] = molecular target: T9, Human neuropeptide Y (NPY-Y1) (Homo sapiens, UniProt P25929); test: Radioligand binding, human neuropeptide Y NPY-Y1 membranes, FlashPlate, [125I]-PYY; conditions: compound at 10 μM, [125I]-PYY
T9 construct: purchased Perkin Elmer Biosignal
T9 sequence (P25929 1-384): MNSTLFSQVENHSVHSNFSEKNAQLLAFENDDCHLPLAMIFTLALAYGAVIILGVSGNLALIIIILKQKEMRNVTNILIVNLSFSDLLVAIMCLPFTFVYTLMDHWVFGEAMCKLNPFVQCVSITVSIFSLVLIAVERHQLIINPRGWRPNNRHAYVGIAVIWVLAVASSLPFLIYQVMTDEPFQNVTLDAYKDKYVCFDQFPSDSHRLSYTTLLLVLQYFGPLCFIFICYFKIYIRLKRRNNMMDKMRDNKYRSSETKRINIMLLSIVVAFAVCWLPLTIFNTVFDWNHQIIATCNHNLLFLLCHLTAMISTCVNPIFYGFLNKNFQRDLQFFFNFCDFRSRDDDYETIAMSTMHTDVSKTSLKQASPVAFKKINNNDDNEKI
How it was run: as §1

[10] = molecular target: T10, Human opioid (ORL1) (Homo sapiens, UniProt P41146); test: Radioligand binding, human opioid ORL1 membranes, FlashPlate, [125I]-Nociceptin; conditions: compound at 10 μM; [125I]-Nociceptin
T10 construct: purchased Perkin Elmer Biosignal
How it was run: as §1

[11] = molecular target: T11, Mouse urotensin (mUR2) (Mus musculus, UniProt Q8VIH9); test: Radioligand binding, mouse urotensin mUR2 membranes, FlashPlate, [125I]-Urotensin II; conditions: compound at 10 μM, [125I]-Urotensin II
T11 construct: purchased Perkin Elmer Biosignal
T11 sequence (Q8VIH9 1-385): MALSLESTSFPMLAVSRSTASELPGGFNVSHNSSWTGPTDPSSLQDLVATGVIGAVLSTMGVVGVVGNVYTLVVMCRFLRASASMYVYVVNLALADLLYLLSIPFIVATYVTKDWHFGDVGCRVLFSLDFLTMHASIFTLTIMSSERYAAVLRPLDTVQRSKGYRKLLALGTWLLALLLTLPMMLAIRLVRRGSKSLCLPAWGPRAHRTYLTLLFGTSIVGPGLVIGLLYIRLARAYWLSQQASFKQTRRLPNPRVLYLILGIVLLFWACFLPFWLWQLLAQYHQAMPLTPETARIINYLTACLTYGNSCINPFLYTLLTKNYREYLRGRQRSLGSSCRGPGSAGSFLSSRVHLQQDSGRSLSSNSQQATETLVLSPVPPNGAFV
How it was run: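 Cloned mouse urotensin (mUR2) receptor membranes from Perkin Elmer Biosignal were immobilized in FlashPlate microplates using a proprietary coating. Each well got 19.5 μl buffer, then 0.5 μl of DMSO, reference ligand, or compound. Adding 5 μl of [125I]-Urotensin II, diluted to 5× final concentration in binding buffer, started binding. Plates were sealed with TopSeal-A and incubated 1 hour at room temperature in the dark. Wells were counted for 30 seconds each on a TopCount after a 60-second delay, and percentage inhibition was calculated.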

T7 sequence (P35372 whole entry): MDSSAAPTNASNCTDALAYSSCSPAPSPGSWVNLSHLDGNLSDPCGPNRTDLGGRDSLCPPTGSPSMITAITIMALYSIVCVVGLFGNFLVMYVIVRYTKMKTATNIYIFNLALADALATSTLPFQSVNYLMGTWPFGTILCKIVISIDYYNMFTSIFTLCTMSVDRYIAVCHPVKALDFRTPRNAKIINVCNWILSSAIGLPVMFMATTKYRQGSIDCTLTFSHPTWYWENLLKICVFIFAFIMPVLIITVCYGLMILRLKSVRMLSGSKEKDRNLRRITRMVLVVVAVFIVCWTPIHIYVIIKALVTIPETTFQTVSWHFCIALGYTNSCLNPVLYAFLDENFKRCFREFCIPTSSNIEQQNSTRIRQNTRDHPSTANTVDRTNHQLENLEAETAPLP
T2 sequence (P41145 whole entry): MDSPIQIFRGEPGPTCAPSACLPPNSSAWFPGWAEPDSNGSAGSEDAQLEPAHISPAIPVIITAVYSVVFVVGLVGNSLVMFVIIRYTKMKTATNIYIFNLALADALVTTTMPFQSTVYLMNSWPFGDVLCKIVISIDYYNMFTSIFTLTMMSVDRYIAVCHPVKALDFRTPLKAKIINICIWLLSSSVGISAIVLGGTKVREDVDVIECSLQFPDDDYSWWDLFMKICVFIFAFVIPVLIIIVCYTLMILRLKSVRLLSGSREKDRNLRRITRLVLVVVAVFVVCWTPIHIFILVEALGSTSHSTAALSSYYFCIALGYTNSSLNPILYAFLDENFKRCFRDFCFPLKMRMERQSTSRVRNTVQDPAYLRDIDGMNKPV
T5 sequence (P33032 whole entry): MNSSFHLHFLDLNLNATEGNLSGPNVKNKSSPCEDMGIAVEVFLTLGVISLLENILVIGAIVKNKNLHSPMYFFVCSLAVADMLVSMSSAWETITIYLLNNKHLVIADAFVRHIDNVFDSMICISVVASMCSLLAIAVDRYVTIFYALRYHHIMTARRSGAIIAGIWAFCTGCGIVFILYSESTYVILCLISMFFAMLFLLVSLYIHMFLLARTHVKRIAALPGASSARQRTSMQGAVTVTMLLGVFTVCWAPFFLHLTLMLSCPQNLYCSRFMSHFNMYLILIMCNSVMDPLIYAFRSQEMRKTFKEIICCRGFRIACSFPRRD
T6 sequence (Q99705 whole entry): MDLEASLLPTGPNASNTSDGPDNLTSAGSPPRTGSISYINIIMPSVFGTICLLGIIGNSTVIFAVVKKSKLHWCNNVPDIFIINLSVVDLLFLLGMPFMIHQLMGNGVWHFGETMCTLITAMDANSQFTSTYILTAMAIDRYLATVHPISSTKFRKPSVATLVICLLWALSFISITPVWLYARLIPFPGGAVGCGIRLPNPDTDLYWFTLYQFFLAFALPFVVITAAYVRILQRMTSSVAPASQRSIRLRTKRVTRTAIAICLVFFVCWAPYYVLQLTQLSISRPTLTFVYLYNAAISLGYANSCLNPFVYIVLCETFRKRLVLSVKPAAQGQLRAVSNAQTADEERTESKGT
T4 sequence (P32245 whole entry): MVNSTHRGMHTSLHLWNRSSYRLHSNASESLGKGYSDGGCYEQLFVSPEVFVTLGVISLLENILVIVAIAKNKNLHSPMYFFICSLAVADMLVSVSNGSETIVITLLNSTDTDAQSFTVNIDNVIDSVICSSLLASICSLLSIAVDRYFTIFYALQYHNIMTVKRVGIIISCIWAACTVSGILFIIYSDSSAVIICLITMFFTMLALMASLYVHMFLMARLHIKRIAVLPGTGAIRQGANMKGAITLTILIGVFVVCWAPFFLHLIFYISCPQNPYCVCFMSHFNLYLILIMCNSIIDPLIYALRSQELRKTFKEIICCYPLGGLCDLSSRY
T3 sequence (P41968 whole entry): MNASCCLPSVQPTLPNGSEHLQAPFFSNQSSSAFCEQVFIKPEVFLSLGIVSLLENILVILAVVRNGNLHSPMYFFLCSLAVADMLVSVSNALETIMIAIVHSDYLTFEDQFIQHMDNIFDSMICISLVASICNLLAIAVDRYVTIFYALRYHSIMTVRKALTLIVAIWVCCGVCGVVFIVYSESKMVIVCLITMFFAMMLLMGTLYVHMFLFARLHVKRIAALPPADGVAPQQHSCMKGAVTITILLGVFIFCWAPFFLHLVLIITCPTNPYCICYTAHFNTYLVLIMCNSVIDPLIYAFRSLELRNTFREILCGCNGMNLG
T10 sequence (P41146 whole entry): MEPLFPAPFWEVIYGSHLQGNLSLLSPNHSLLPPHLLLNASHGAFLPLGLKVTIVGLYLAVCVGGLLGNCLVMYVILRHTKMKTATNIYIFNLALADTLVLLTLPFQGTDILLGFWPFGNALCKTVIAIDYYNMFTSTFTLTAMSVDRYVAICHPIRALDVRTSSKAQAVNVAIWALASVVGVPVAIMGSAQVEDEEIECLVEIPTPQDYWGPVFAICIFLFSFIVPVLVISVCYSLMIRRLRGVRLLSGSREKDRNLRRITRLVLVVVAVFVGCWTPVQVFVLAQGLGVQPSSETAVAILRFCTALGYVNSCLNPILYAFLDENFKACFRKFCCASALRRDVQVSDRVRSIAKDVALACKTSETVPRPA
T8 sequence (P25103 whole entry): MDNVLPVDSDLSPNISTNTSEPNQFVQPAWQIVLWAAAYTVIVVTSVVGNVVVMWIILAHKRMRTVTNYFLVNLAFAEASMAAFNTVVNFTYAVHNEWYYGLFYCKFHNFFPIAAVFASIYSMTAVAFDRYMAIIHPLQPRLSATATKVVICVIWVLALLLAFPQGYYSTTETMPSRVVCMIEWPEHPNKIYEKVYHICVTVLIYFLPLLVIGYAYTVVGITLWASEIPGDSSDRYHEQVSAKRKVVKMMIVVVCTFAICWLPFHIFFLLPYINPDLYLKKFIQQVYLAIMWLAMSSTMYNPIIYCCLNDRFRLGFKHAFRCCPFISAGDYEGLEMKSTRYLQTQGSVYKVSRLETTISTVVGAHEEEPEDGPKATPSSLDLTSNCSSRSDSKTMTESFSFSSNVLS
T1 sequence (P41143 whole entry): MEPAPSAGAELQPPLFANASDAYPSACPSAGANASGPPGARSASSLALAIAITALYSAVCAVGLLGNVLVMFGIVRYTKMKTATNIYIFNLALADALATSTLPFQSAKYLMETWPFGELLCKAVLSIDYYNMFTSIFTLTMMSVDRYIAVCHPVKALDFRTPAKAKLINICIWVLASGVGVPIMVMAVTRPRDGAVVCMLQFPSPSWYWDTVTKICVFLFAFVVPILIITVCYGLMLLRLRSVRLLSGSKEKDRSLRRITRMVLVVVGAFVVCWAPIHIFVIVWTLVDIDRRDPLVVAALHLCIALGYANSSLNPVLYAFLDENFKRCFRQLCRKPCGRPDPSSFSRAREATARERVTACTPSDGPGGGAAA

Row | Compound | A1: inhibition of radioligand binding, human δ-opioid (DOP) [1] | A2: inhibition of radioligand binding, human κ-opioid (KOP) ([2]; 10 µM) | A3: inhibition of radioligand binding, human melanocortin (MC3) [3] | A4: inhibition of radioligand binding, human melanocortin (MC4) [4] | A5: inhibition of radioligand binding, human melanocortin (MC5) [5] | A6: inhibition of radioligand binding, human melanin-concentrating hormone (MCH1) [6] | A7: inhibition of radioligand binding, human μ-opioid (MOP) [7] | A8: inhibition of radioligand binding, human neurokinin (NK1) [8] | A9: inhibition of radioligand binding, human neuropeptide Y (NPY-Y1) ([9]; 10 µM) | A10: inhibition of radioligand binding, human opioid (ORL1) [10] | A11: inhibition of radioligand binding, mouse urotensin (mUR2) ([11]; 10 µM) | A2: inhibition of radioligand binding, human κ-opioid (KOP) [2] | A9: inhibition of radioligand binding, human neuropeptide Y (NPY-Y1) [9] | A11: inhibition of radioligand binding, mouse urotensin (mUR2) [11]
1 | N=C(N)NCCC(=O)N[C@H]1C(OCc2ccc(Cl)cc2)O[C@H](COCc2ccc(Cl)cc2)[C@@H](O)[C@@H]1OCc1ccc(-c2ccccc2)cc1 (stereo partly shown) [compound 538] | − (“−” indicates less than 50% inhibition at 10 μM) | + (“+” indicates greater than 50% inhibition at 10 μM) | + (“+” indicates greater than 50% inhibition at 10 μM) | + (“+” indicates greater than 50% inhibition at 10 μM) | + (“+” indicates greater than 50% inhibition at 10 μM) | + (“+” indicates greater than 50% inhibition at 10 μM) | − (“−” indicates less than 50% inhibition at 10 μM) | + (“+” indicates greater than 50% inhibition at 10 μM) | + (“+” indicates greater than 50% inhibition at 10 μM) | + (“+” indicates greater than 50% inhibition at 10 μM) | + (“+” indicates greater than 50% inhibition at 10 μM) | – | – | –
2 | N=C(N)NCC(=O)NC1COC(COCc2ccc(Cl)cc2)C(O)C1OCc1ccc(Cl)cc1 (stereo not shown) [compound 539] | − (“−” indicates less than 50% inhibition at 10 μM) | – | − (“−” indicates less than 50% inhibition at 10 μM) | + (“+” indicates greater than 50% inhibition at 10 μM) | − (“−” indicates less than 50% inhibition at 10 μM) | − (“−” indicates less than 50% inhibition at 10 μM) | − (“−” indicates less than 50% inhibition at 10 μM) | + (“+” indicates greater than 50% inhibition at 10 μM) | – | − (“−” indicates less than 50% inhibition at 10 μM) | – | − (“−” indicates less than 50% inhibition at 10 μM) | − (“−” indicates less than 50% inhibition at 10 μM) | − (“−” indicates less than 50% inhibition at 10 μM)
3 | N=C(N)NCC(=O)NC1COC(COCc2ccc3ccccc3c2)C(O)C1OCc1ccc(Cl)cc1 (stereo not shown) [compound 540] | − (“−” indicates less than 50% inhibition at 10 μM) | – | − (“−” indicates less than 50% inhibition at 10 μM) | + (“+” indicates greater than 50% inhibition at 10 μM) | − (“−” indicates less than 50% inhibition at 10 μM) | − (“−” indicates less than 50% inhibition at 10 μM) | − (“−” indicates less than 50% inhibition at 10 μM) | + (“+” indicates greater than 50% inhibition at 10 μM) | – | − (“−” indicates less than 50% inhibition at 10 μM) | – | − (“−” indicates less than 50% inhibition at 10 μM) | − (“−” indicates less than 50% inhibition at 10 μM) | − (“−” indicates less than 50% inhibition at 10 μM)
4 | N=C(N)NCCCC(=O)NC1COC(COCc2ccc3ccccc3c2)C(O)C1OCc1ccc(Cl)cc1 (stereo not shown) [compound 541] | − (“−” indicates less than 50% inhibition at 10 μM) | – | − (“−” indicates less than 50% inhibition at 10 μM) | − (“−” indicates less than 50% inhibition at 10 μM) | − (“−” indicates less than 50% inhibition at 10 μM) | − (“−” indicates less than 50% inhibition at 10 μM) | − (“−” indicates less than 50% inhibition at 10 μM) | + (“+” indicates greater than 50% inhibition at 10 μM) | – | − (“−” indicates less than 50% inhibition at 10 μM) | – | − (“−” indicates less than 50% inhibition at 10 μM) | − (“−” indicates less than 50% inhibition at 10 μM) | − (“−” indicates less than 50% inhibition at 10 μM)
5 | N=C(N)NCCCC(=O)NC1COC(COCc2ccc(Cl)cc2)C(O)C1OCc1ccc(Cl)cc1 (stereo not shown) [compound 542] | − (“−” indicates less than 50% inhibition at 10 μM) | – | − (“−” indicates less than 50% inhibition at 10 μM) | − (“−” indicates less than 50% inhibition at 10 μM) | − (“−” indicates less than 50% inhibition at 10 μM) | − (“−” indicates less than 50% inhibition at 10 μM) | − (“−” indicates less than 50% inhibition at 10 μM) | + (“+” indicates greater than 50% inhibition at 10 μM) | – | − (“−” indicates less than 50% inhibition at 10 μM) | – | − (“−” indicates less than 50% inhibition at 10 μM) | − (“−” indicates less than 50% inhibition at 10 μM) | − (“−” indicates less than 50% inhibition at 10 μM)
